Experimental data from US20090188496A1, “INHALABLE TIOTROPIUM AND CONTAINER THEREFOR” (Boehringer Ingelheim International GmbH, priority 2003, published 2009).

Test: In-use stability test of FPD, commercial capsules in opened blister, 40° C. and 75% Rh
Type: physicochemical
Conditions: conclusion of tests S1-5 and HBS1-3
Protocol: From the blister holding 5 capsules one capsule was withdrawn and the remaining 4 capsules were put 4 days into 40° C. and 75% Rh. The blister containing the 4 capsules was then put in an exicator for 2 h before tests were performed. The test was performed with 4 kPa pressure drop over the […]® at room temperature and laboratory ambient conditions.
From the blister holding 5 capsules one capsule was withdrawn and the remaining 4 capsules were put 13 days into 40° C. and 75% Rh. The blister containing the 4 capsules was then put in an exicator for 2 h before tests were performed. The test was performed with 4 kPa pressure drop over the […]® at room temperature and laboratory ambient conditions.
From the blister holding 5 capsules one capsule was withdrawn and the remaining 4 capsules were put 21 days into 40° C. and 75% Rh. The blister containing the 4 capsules was then put in an exicator for 2 h before tests were performed. The test was performed with 4 kPa pressure drop over the […]® at room temperature and laboratory ambient conditions.

## C[N+]1(C)[C@@H]2C[C@@H](OC(=O)C(O)(c3cccs3)c3cccs3)C[C@H]1[C@@H]1O[C@@H]12 [tiotropium]
  Sensitivity of FPD to moisture: extremely sensitive to moisture
